The test system of data set [1] is UBASH3B expression. The data set is described as follows: Real-time PCR and Western blot analysis of UBASH3B expression. In kind it is cell-based, human. How it is done:
(§1) All siRNA were designed by 1st Base Singapore except for ETS1 siRNA#1 which was referenced from a previously published paper^7. Oligo miRNA mimics and antagomirs were purchased from Dharmacon, Inc. (Chicago, Ill., USA). For transfection, 30 nM siRNAs, 15 nM miRNA mimics or 100 nM iRNA antagomirs were used to transfect cells. 48 h after transfection cell pellets were collected and subjected indicated assays.
Total RNA including small RNAs was isolated using RNeasy Mini Kit (Qiagen). The microarray hybridization was performed using the Illumina HumanHT-12 V4.0 expression beadchip, and data analysis was performed using GeneSpring software from Agilent Technologies. Microarray data reported herein have been deposited at the NCBI Gene Expression Omnibus with the accession number GSE36693. Reverse transcription and quantitative PCR assays were performed using High Capacity cDNA Archive kit and KAPA SyBr Fast qPCR kit (KAPA Biosystems), respectively. TaqMan MicroRNA assays were used to quantify the level of mature miRNAs as previously described^8. Briefly, 10 ng of total RNA was reverse-transcribed and product was subjected to TaqMan stemloop miRNA assay (Applied Biosystems). RNU6B was used to normalize the data. For quantification of mRNA levels, 18S level was used as internal control. All reactions were analyzed in an Applied Biosystems 7500 Fast. Real-Time PCR system in 96-well plate format. Real-time primer sequences are listed in Supplementary Table 2.
(§2) Western Blotting was performed as described previously^9. Anti-UBASH3B (ab34781) was purchased from Abcam. Anti-EGFR (cs2232), anti-CBL (cs2747) and anti-Pan phosphor-Tyr (cs9411) was purchased from Cell Signaling. Anti-ETS1 (sc350), anti-ZEB1 (sc-2538.8), and anti-ZEB2 (sc-48789) were obtained from Santa Cruz. Anti-Myc and anti-Actin were purchased from Roche Applied Science and Sigma-Aldrich, respectively.

Data set [2] relates to SUM159PT-R (Paclitaxel-resistant SUM159PT) cells. The data set is described as follows: Cell viability assay after Paclitaxel treatment. In kind it is cell-based. The conditions noted are these: Paclitaxel-resistant SUM159PT with UBASH3B knockdown; 72 hrs. How it is done:
Cell viability assay was performed and EC50 of Paclitaxel in each sample was determined and shown at the top. UBASH3B knockdown efficiency was assessed by Western blotting, shown at the bottom. *P<0.05, paired two-tailed t-test. Error bars, mean+SEM.
Cell viability was determined using CellTiter-Glo Luminescent Cell Viability Assay (Promega) as instructed by manufacturer's manual. 1000 cells were plated in 96-well plate and the readings were taken for 5 consecutive days using CellTiter-Glo kit (Promega).

Data set [3] has as its system MB231-LN. The data set is described as follows: Methylcellulose assay (anchorage-independent growth). The following applies: for EC50: Homo sapiens.
Data set [4] concerns UBASH3B 3'-UTR. Kind of data set: Luciferase reporter assay with UBASH3B 3'-UTR reporters. The format is cell-based. The conditions noted are these: wild type vs miR-200a binding site mutated reporters; 40 nM mimics. How it is done:
HCT116 cells were plated at a density of 5×10^4 cells per well in 24-well plate format and transfected with 10 ng of pMIR REPORT containing the respective miRNA responsive regions of UBASH3B 3′ UTR sequence, 40 nM of miRNA mimics and 5 ng of pRL null internal control simultaneously on the next day. At 48 h after transfection, the luciferase activities were measured using the Dual Luciferase system (Promega). All luciferase readings were first normalized to corresponding internal control pRL null Renilla luciferase readings. The resulting relative activities were further normalized to appropriate controls.

The subject of data set [5] is ZEB1 and ZEB2. Kind of data set: Western blot of ZEB1 and ZEB2 expression. The format is cell-based, human. The following applies: MB231 and BT549 overexpressing mimics. How it is done: as §1, §2
Data set [6] has as its system MB231-LN xenograft tumor. Kind of data set: MB231-LN subcutaneous xenograft tumor growth with Erlotinib treatment. The format is in vivo, mice. The following applies: 100 mg/kg oral gavage, 6 days per week for 4 weeks.
Method: All raw measurements were presented as mean±SEM (standard error of the mean). Comparisons of curves between primary tumor and BLI lung metastasis growth were performed using repeated Anova analysis. Survival analysis was performed using Kaplan-Meier estimator and log-rank test. The relative hazard ratio between different groups was calculated based on Cox-proportional hazards model and presented as HR (95% CI). Other comparisons were performed using unpaired two-sided Student's t-test without equal variance assumption or nonparametric Mann-Whitney test. All statistic calculations were performed with Excel, Stata 7 and EPI info. […] For in vivo Erlotinib treatment, both control cell and UBASH3B KD MB231-LN cells were subcutaneously injected into 6-8 week female nude mice at 5×10^6 cells, followed by treatment with vehicle or Erlotinib (LC lab, #E-4007) at 100 mg/kg by oral gavage with 6 consecutive days per week for 4 weeks after average tumor volume reached around 150 mm^3. Tumors were measured by calliper three times per week and tumors volume was calculated with formula: V=W*W*L/2.

Read-outs that look alike come from different tables or passages of the source.

The record followed here is patent US9334500B2, “Methods and pharmaceutical compositions for treating cancer” (Agency for Science, Technology and Research, priority 2011, dated 2016).

Turning to `N#CC(=C(/N)Sc1ccccc1N)/C(C#N)=C(\N)Sc1ccccc1N` [U0126], in data set [1] (MB231 cells, 5 μM, real-time PCR, indicated time points), the UBASH3B expression entry is “decrease the UBASH3B expression in a time-dependent manner”.
Regarding `CC(=O)O[C@H]1C(=O)[C@@]2(C)[C@H]([C@H](OC(=O)c3ccccc3)[C@]3(O)C[C@H](OC(=O)[C@H](O)[C@@H](NC(=O)c4ccccc4)c4ccccc4)C(C)=C1C3(C)C)[C@]1(OC(C)=O)CO[C@@H]1C[C@@H]2O` [Paclitaxel], in data set [2], the “sensitivity to Paclitaxel treatment” value was “increased sensitivity”. For the same compound, the EC50 in data set [3] (read-out: EC50 of Paclitaxel, cells with UBASH3B depletion) came out at 0.61 nM; in data set [3] (read-out: EC50 of Paclitaxel, control cells, without UBASH3B depletion), 4.53 nM.
For “miR-200a: oligo miRNA mimic purchased from Dharmacon (UAACACUGUCUGGUAACGAUGU; listed as RNA, chemistry not given here)”, in data set [1] (BT549 cells, miR-200a overexpression combined with ETS1 knockdown), the UBASH3B expression result is recorded as “more pronounced downregulation”. Moreover, the “UBASH3B mRNA and protein expression” value in data set [1] (enforced expression of mimics in invasive breast and prostate cancer cells) was “able to reduce”. Further, the “targeting and inhibition of UBASH3B 3'-UTR reporter” value in data set [4] is “direct and specific targeting and inhibition”. Moreover, in data set [5], the “expression of ZEB1 and ZEB2” value was “could repress”.
With `C#Cc1cccc(Nc2ncnc3cc(OCCOC)c(OCCOC)cc23)c1` [Erlotinib], the “xenograft tumor growth response to Erlotinib” value in data set [6] (UBASH3B depleted tumors) was “irresponsive”; in data set [6] (control tumors), “marked growth inhibition”. Besides, the EC50 is 3850 nM in data set [3] (read-out: EC50 of Erlotinib, MB231-LN cells with UBASH3B depletion) and 450 nM in data set [3] (read-out: EC50 of Erlotinib, MB231-LN control cells, without UBASH3B depletion). Moreover, the “sensitivity of cells to Erlotinib treatment” value in data set [3] (UBASH3B-depleted MB231 with ectopic overexpression of EGFR) is on record as “restored the sensitivity”.
